{"source": "patent US20100179220A1", "about": "“METHOD FOR THE TREATMENT OF TINNITUS” (Merck Patent GmbH, priority 2006, published 2010)", "key": {"[1]": {"test_system": "patients with sensorineural tinnitus", "assay": "randomized double-blind placebo-controlled clinical trial of acamprosate in tinnitus", "type": "in vivo, human", "design": "key to tinnitus scale, Mean / tinnitus scale, Median / tinnitus scale, Minimum / tinnitus scale, Maximum: tinnitus disturbance score, 0 to 10 (0.5 steps allowed)", "description": "We selected 50 patients with tinnitus seen at OTOSUL, Otorrinolaringologia Sul-fluminense, Hospital São Camilo, Volta Redonda, R J, between October 2003 and October 2004. The inclusion criteria were tinnitus of sensorineural etiology, excluding the cases of external and middle ear disease and concomitant temporomandibular joint disorders. Pure tone audiometry, vocal audiometry and immittanciometry were performed in all patients, and we excluded those with conductive and mixed hearing loss and those with tympanogram curve types A-r, A-d, C and B. The audiometer used was AMPLAID A 177 PLUS, and the Immittanciometer was AMPLAID 750. We considered the thresholds up to 25 dB (normal hearing), 26 to 40 dB (mild loss), 41 to 70 dB (moderate loss), 71 to 90 dB (severe loss) and over 90 dB (profound loss).\nThe patients were classified according to the following parameters:\nage, gender, continuous or intermittent tinnitus, uni or bilateral tinnitus, tinnitus characteristics (type of associated noise), time of tinnitus, associated symptoms (hypo and hyper loss, dizziness, ear fullness), probable tinnitus etiology, previous use of drugs to treat tinnitus, and baseline tinnitus score, given by the patient, ranging from 0 to 10, according to how much it disturbed the patient\nPatients were asked to score tinnitus from 1 to 10 according to how much they were disturbed by it. We allowed 0.5 scores as well.\nPatients were randomly divided into 2 groups of 25 patients: one group received acamprosate 333 mg, TID, and the other received placebo, TID, both groups for 90 days. All details of the study were clarified to the patients by the assistant physician and they all signed the informed consent term. It was a double-blind study approved by the Medical Ethical Committee, Hospital São Camilo.\nPatients were analyzed at days 30, 60 and 90 after use of the drug and at each visit, the patient scored the tinnitus status, as well as reported side effects.\nThe statistical analysis was performed based on the following methods:\nt Student test for independent samples or the Mann-Whitney test to compare quantitative data between the two groups (acamprosate and placebo) chi-square test or Fisher exact test to compare qualitative data, Friedman Variance Analysis to analyze the progression of tinnitus scale (quantitative data) throughout time (four assessments within 3 months) with the treatment with acamprosate and placebo.\nThe test of multiple comparisons based on the statistics of Friedman was applied to identify which moments were different. The test of multiple comparisons is a test complementary to Variance Analysis.\nThe criterion for determination of significance was adopted as 5%, that is, when p value of the statistical test was smaller or equal to 0.05, meaning there was statistical significance. The statistical analysis was processed by the statistical software SAS System."}, "GABA reuptake sites": {"test_system": "GABA reuptake sites", "details": "rats; cited from earlier work"}, "patients with tinnitus": {"test_system": "patients with tinnitus", "details": "cited from earlier work; for improvement of tinnitus: literature studies, only baclofen and caroverine double blind placebo-controlled"}, "[2]": {"details": "acamprosate 333 mg TID, 90 days, n=23"}}, "note": "Values joined by “and” are separate entries in the source; they are usually repeats but may differ in a detail not shown here. Identical values can stand only once."}
{"compound": "CC(=O)NCCCS(=O)(=O)O", "note": "[acamprosate, calcium acetyl-homotaurinate]", "values": [{"measurement": "tinnitus scale, Maximum", "setting": "[1]; Baseline, n=23", "result": 10}, {"measurement": "tinnitus scale, Mean", "setting": "[1]; Baseline, n=23", "result": 6.74}, {"measurement": "tinnitus scale, Median", "setting": "[1]; Baseline, n=23", "result": 7}, {"measurement": "tinnitus scale, Minimum", "setting": "[1]; Baseline, n=23", "result": 3}, {"measurement": "tinnitus scale, Maximum", "setting": "[1]; Score 30 d, 333 mg TID, n=23", "result": 10}, {"measurement": "tinnitus scale, Mean", "setting": "[1]; Score 30 d, 333 mg TID, n=23", "result": 5.39}, {"measurement": "tinnitus scale, Median", "setting": "[1]; Score 30 d, 333 mg TID, n=23", "result": 5}, {"measurement": "tinnitus scale, Minimum", "setting": "[1]; Score 30 d, 333 mg TID, n=23", "result": 2}, {"measurement": "tinnitus scale, Maximum", "setting": "[1]; Score 60 d, 333 mg TID, n=23", "result": 9}, {"measurement": "tinnitus scale, Mean", "setting": "[1]; Score 60 d, 333 mg TID, n=23", "result": 3.98}, {"measurement": "tinnitus scale, Median", "setting": "[1]; Score 60 d, 333 mg TID, n=23", "result": 4}, {"measurement": "tinnitus scale, Minimum", "setting": "[1]; Score 60 d, 333 mg TID, n=23", "result": 0}, {"measurement": "tinnitus scale, Maximum", "setting": "[1]; Score 90 d, 333 mg TID, n=23", "result": 10}, {"measurement": "tinnitus scale, Mean", "setting": "[1]; Score 90 d, 333 mg TID, n=23", "result": 2.87}, {"measurement": "tinnitus scale, Median", "setting": "[1]; Score 90 d, 333 mg TID, n=23", "result": 2}, {"measurement": "tinnitus scale, Minimum", "setting": "[1]; Score 90 d, 333 mg TID, n=23", "result": 0}, {"measurement": "worsening in score", "setting": "[1]; acamprosate 333 mg TID, 90 days", "result": "no worsening in score has been observed"}, {"measurement": "severity of observed side effects", "setting": "[1]; acamprosate 333 mg TID, 90 days, epigastralgia, choking", "result": "mild"}, {"measurement": "patients who did not report improvement", "setting": "[1]; [2]", "result": 13.04, "unit": "%"}, {"measurement": "patients who reported improvement below 50%", "setting": "[1]; [2]", "result": 39.13, "unit": "%"}, {"measurement": "subjects who reported that tinnitus had disappeared", "setting": "[1]; [2]", "result": 13.04, "unit": "%"}, {"measurement": "incidence of side effects", "setting": "[1]; acamprosate 333 mg TID, 90 days, placebo 20%, p=0.35", "result": 12, "unit": "%"}, {"measurement": "proportion of improvement at 90 days equal or greater than 50%", "setting": "[1]; acamprosate 333 mg TID, 90 days, subjective tinnitus score, placebo 11.1%, p=0.012", "result": "47.8% and 47.83%"}, {"measurement": "patients who interrupted treatment before the end of assessment", "setting": "[1]; acamprosate group of 25, placebo 7", "result": 2}, {"measurement": "patients who suspended treatment owing to side effects", "setting": "[1]; acamprosate group, 50% of those who interrupted", "result": "One"}, {"measurement": "variation of tinnitus scale as a result of time (Friedman Variance Analysis)", "setting": "[1]; baseline, 30, 60, 90 days, 333 mg TID, p<0.0001", "result": "significant decrease"}, {"measurement": "effect on GABA reuptake sites and GABA transmission", "setting": "GABA reuptake sites", "result": "increases the number of reuptake sites of GABA"}]}
{"compound": "NCC(CC(=O)O)c1ccc(Cl)cc1", "note": "(stereo not drawn) [baclofen]", "values": [{"measurement": "improvement of tinnitus", "setting": "patients with tinnitus", "result": "about 9.7%"}]}
{"compound": "NC(=O)N1c2ccccc2C=Cc2ccccc21", "note": "[carbamazepine]", "values": [{"measurement": "improvement, % of the cases of tinnitus", "setting": "patients with tinnitus; progressively increasing doses of 50 to 600 mg a day, defined by positive lidocaine test", "result": 50, "unit": "%"}]}
{"compound": "CCN(CC)CCn1c(=O)c(Cc2ccc(OC)cc2)nc2ccccc21", "note": "[caroverine]", "values": [{"measurement": "improvement of tinnitus", "setting": "patients with tinnitus", "result": 63.3, "unit": "%"}]}
{"compound": "O=C1CN=C(c2ccccc2Cl)c2cc([N+](=O)[O-])ccc2N1", "note": "[clonazepam]", "values": [{"measurement": "improvement of tinnitus", "setting": "patients with tinnitus", "result": 32, "unit": "%"}]}
{"compound": "c1cnc(N2CCN(Cc3ccc4c(c3)OCO4)CC2)nc1", "note": "[piribedil]", "values": [{"measurement": "improvement of tinnitus", "setting": "patients with tinnitus", "result": 92.6, "unit": "%"}]}
{"compound": "COc1ccc(CN2CCNCC2)c(OC)c1OC", "note": "[trimetazidine]", "values": [{"measurement": "improvement of tinnitus", "setting": "patients with tinnitus", "result": 89, "unit": "%"}]}
